In patent US6191124A, “Methanol derivatives for treatment of retroviral infections especially HIV infections” (priority 1997, dated 2001):
Read-outs that look alike come from different tables or passages of the source. Square brackets hold non-standard residues; d marks the D form. Peptide text beside a SMILES is read from it. * marks the point of attachment. Sta = CC(C)C[C@H](N)[C@@H](O)CC(=O)O; Isovaleryl = CC(C)CC(=O)*

Legend:
HIV-1 protease [1] = target: T1, HIV-1 protease (Human immunodeficiency virus type 1 group M subtype B, UniProt P04585); assay: HIV protease screening assay (fluorescently labeled biotinylated substrate, streptavidin beads), percent inhibition; type: biochemical; settings: for inhibition at 1.1 µM: read-out: Protease Inhibition, % Inhibition; for inhibition at 10 µM: read-out: % Protease Inhibition
Description: The HIV protease screening assay is based on fluorescently labeled substrate which can be resolved from nonlabeled cleavage product using special beads coated with streptavidin. The substrate is biotinylated at the amino terminal arginine and fluorescently labeled with fluorescein isothiocynate (FITC) at the carboxyl terminal lysine. This assay has been employed to detect novel, nonpeptidic inhibitors of HIV-1 protease. Substrate (20 μl of 0.2 μM), sample (10 μl of desired concentration), and enzyme (10 μl of 0.1 μM) are added to a 96 well pandex plate. The assay is run in 0.1 M sodium acetate buffer at pH 5.5 in the presence of 1.0 M sodium chloride and 0.05% NP-40 with incubated in the dark for one hour at room temperature. Strepavidin coated polystyrene beads {40 μl of 0.1% (w/v)} are added and the plate is incubated in the dark for an additional half hour. The labeled cleavage product is separated from the unreacted substrate via filtration and is read on the Idexx screen machine. The data are analyzed by appropriate computer algorithms to ascertain percent inhibition values.

HIV-1 protease [2] = target: T1, HIV-1 protease; assay: Determination of Ki values, HIV-1 protease; type: biochemical
Description: Determination of Ki values utilizes the same materials and equipment employed for percent inhibition studies. Two-fold serial dilutions are made for a given inhibitor from 2, 3 or 4 starting concentrations with a total of 24, 36 or 48 individual inhibitor concentrations. These dilutions are performed utilizing the BioMek robotics system. The assay consists of 10 μL or 40 nM HIV-1 protease, 10 μL of the various inhibitor concentrations, and 20 μL of 200 μM substrate (40 μL total). The reaction is allowed to proceed for 90 min at room temperature, terminated with 40 μL of avidin beads and processed (supra vide). An inhibitor with a known Ki is run in parallel to verify the validity of the assay. The data is processed utilizing a computer program employing a nonlinear least square analysis of the data to generate the Ki values.

HIV = settings: cited from earlier work
[3] = cited from earlier work
hepatic glycolysis = settings: cited from earlier work
HIV-1IIIB = HIV-1IIIB replication in human T-cell line H9 (p24 core antigen ELISA); type: cell-based; settings: human T-cell lines, e.g., H9, infected with HIV-1IIIB
Description: Several compounds of the present invention, such as 2,3-dimethyl-[…]-(2-phenylethyl)imidazo[2,1-b]thiazole-5-methanol were tested in known human cell lines, such as human T-cell lines, e.g., H9, which were infected with HIV-1IIIB. […] The H9 cell line was originally derived from the peripheral blood of a human lymphoma patient and extensively cloned so that the cells were highly susceptible to HIV infection. Virus-free H9 cells were maintained in a humidified 5% CO2 atmosphere at 37° C. in RPMI Complete (RC) medium, which was composed of RPMI 1640 supplemented with 10% heat-inactivated fetal calf serum (FCS), 10 mM Hepes, 2 mM L-glutamine, 100 μg/ml streptomycin, and 100 U/ml penicillin. H9 cultures were split 1:5 twice weekly for a maximum 12-15 times. […]
HIVIIIb 's ability to replicate efficiently in human T lymphoblastoid cell lines made this strain of HIV the logical choice for protease inhibitor screen. […] The titer, measured at the 50% Tissue Culture Infectious Dose (TCID50), was determined by the Reed-Muench method of statistical analysis to determine the 50% infectivity endpoint.
The standard acute infectivity assay for the evaluation of the inhibitors of HIV protease was performed in 96 well microplates. […] The amount of HIV p24 core antigen was quantified with an ELISA procedure by following the manufacturers directions (Coulter Diagnostics). […]

HIV-I protease = settings: cited from earlier work
[4] = test system: viral reverse transcriptase; settings: cited from earlier work
HIV infection / AIDS = settings: cited from earlier work
[5] = Table 4, read-out: Protease Inhibition, Ki

Compound: OC(CCc1ccccc1)c1cnc2sc3c(n12)CCCC3 (stereo not drawn) [Example 14, 5,6,7,8-Tetrahydro-α-(2-phenylethyl)imidazo[2,1-b]benzothiazole-3-methanol]
- inhibition at 1.1 µM (HIV-1 protease [1]): 73%
- Ki (HIV-1 protease [2]; [5]): 68 ± 14 nM

Compound: O=c1[nH]cnc2c1ncn2[C@H]1CC[C@@H](CO)O1 [ddI]
- activity against HIV in vitro (HIV): potent activity against HIV in vitro
- limiting toxicity ([3]; in vivo): peripheral neuropathy and pancreatitis
- stimulation of hepatic glycolysis (hepatic glycolysis): shown to stimulate hepatic glycolysis leading to irreversible liver damage

Compound: OC(CCc1ccccc1)c1cnc2sc3c(n12)CCCCC3 (stereo not drawn) [Example 15, 6,7,8,9-Tetrahydro-α-(2-phenylethyl)-5H-cyclohept[d]imidazo[2,1-b]thiazole-3-methanol]
- inhibition at 1.1 µM (HIV-1 protease [1]): 57%
- Ki (HIV-1 protease [2]; [5]): 57 ± 14 nM

Compound: OC(CCCCc1ccccc1)c1cnc2sc3c(n12)CCCCC3 (stereo not drawn) [Example 16, 6,7,8,9-Tetrahydro-α-(4-phenylbutyl)-5-H-cyclohept[d]imidazo[2,1-b]thiazole-3-methanol]
- inhibition at 1.1 µM (HIV-1 protease [1]): 54%
- Ki (HIV-1 protease [2]; [5]): 227 ± 42 nM

Compound: Cc1sc2ncc(C(O)CCc3ccccc3)n2c1C (stereo not drawn) [Example 11, 2,3-Dimethyl-α-(2-phenylethyl)imidazo[2,1-b]thiazole-5-methanol]
- inhibition of retroviral replication (HIV-1IIIB): found to inhibit retroviral replication
- % Protease Inhibition (HIV-1 protease [1]; 1.1-1.3 μM (Table 1)): 96%
- % Protease Inhibition (HIV-1 protease [1]; 3.3-3.7 μM (Table 1)): 109%
- inhibition at 10 µM (HIV-1 protease [1]): 112%
- Ki (HIV-1 protease [2]; Table 1, read-out: Ki): 120 nM

Compound: Nc1ccn([C@H]2CC[C@@H](CO)O2)c(=O)n1 [ddC]
- activity against HIV in vitro (HIV): potent activity against HIV in vitro
- limiting toxicity ([3]; humans, clinical): peripheral neuropathy which is reversible at low doses

Compound: CC(C)CC(=O)N[C@H](C(=O)N[C@H](C(=O)N[C@@H](CC(C)C)[C@@H](O)CC(=O)N[C@@H](C)C(=O)N[C@@H](CC(C)C)[C@@H](O)CC(=O)O)C(C)C)C(C)C [Pepstatin A] (Isovaleryl-VV[Sta]A[Sta]-OH)
- inhibition of HIV-I protease (HIV-I protease): inhibitor of HIV-I protease

Compound: Cc1sc2ncc(C(O)CCCc3ccccc3)n2c1C (stereo not drawn) [Example 3, 2,3-Dimethyl-α-(3-phenylpropyl)imidazo-[2,1-b]thiazole-5-methanol]
- % Protease Inhibition (HIV-1 protease [1]; 1.1-1.3 μM (Table 1)): 16%
- % Protease Inhibition (HIV-1 protease [1]; 3.3-3.7 μM (Table 1)): 72%
- inhibition at 10 µM (HIV-1 protease [1]): 115%
- Ki (HIV-1 protease [2]; Table 1, read-out: Ki): 246 nM

Compound: OC(CCc1ccccc1)c1cnc2sc3c(n12)CCCCCC3 (stereo not drawn) [Example 17, 5,6,7,8,9,10-Hexahydro-α-(2-phenylethyl)cyclooct[d]imidazo-[2,1-b]thiazole-3-methanol]
- inhibition at 1.1 µM (HIV-1 protease [1]): 62%
- Ki (HIV-1 protease [2]; [5]): 72 ± 26 nM

Compound: Cc1cn([C@H]2C[C@H](N=[N+]=[N-])[C@@H](CO)O2)c(=O)[nH]c1=O [AZT, 3'-azido-3'-deoxy-thymidine]
- inhibition of viral reverse transcriptase [4]: known inhibitor of viral reverse transcriptase
- decrease of mortality and frequency of opportunistic infections (HIV infection / AIDS): shown to decrease the morality and frequency of opportunistic infections associated with AIDS

Compound: Cc1sc2ncc(C(O)/C=C/c3ccccc3)n2c1C (stereo not drawn) [Example 12, 2,3-Dimethyl-α-(2-phenylethenyl)imidazo[2,1-b]thiazole-5-methanol]
- % Protease Inhibition (HIV-1 protease [1]; 1.1-1.3 μM (Table 1)): 63%
- % Protease Inhibition (HIV-1 protease [1]; 3.3-3.7 μM (Table 1)): 103%
- inhibition at 10 µM (HIV-1 protease [1]): 110%
- Ki (HIV-1 protease [2]; Table 1, read-out: Ki): 567 ± 282 nM
